Assay results as given in patent US10100061B2, “Oxazepine compound and agricultural/horticultural insecticide containing said compound as active ingredient, and method for using the same” (NIHON NOHYAKU CO., LTD., priority 2014, dated 2018).

Columns and labels:
[1] = system: Green Peach Aphid (Myzus Persicae); experiment: Test of preventive value against green peach aphid (Test Example 1); type: in vivo; conditions: 500 ppm, sprayed over stems and leaves of potted Chinese cabbages, sixth day after spraying
Experimental: Test of Preventive Value Against Green Peach Aphid (Myzus Persicae)
Chinese cabbages were planted in plastic pots, each with a size of 8 cm in diameter and 8 cm in height, after which green peach aphids were propagated and the number of parasitic insects was examined in each pot. An oxazepine compound or salt thereof expressed by General Formula (I) according to the present invention was dispersed in water and the dispersion was diluted to 500 ppm in the form of a reagent, after which the reagent was sprayed over stems and leaves of potted Chinese cabbages and let dry under wind, and the pots were kept in a greenhouse, and on the sixth day after the reagent was sprayed, the number of green peach aphids living parasitically on each Chinese cabbage was examined and the preventive value was calculated based on the formula below, and judgment was made according to the criteria below. Preventive value=100−{(T×Ca)/(Ta×C)}×100 [Mathematical Formula 1] • Ta: Number of parasitic insects inside the treatment area before spraying • T: Number of parasitic insects inside the treatment area after spraying • Ca: Number of parasitic insects inside the non-treatment area before spraying • C: Number of parasitic insects inside the non-treatment area after spraying Judgment Criteria • A - - - Preventive value: 100% • B - - - Preventive value: 99%˜90% • C - - - Preventive value: 89%˜80% • D - - - Preventive value: 79%˜50%

[2] = system: Small Brown Planthopper (Laodelphax Striatellus); experiment: Test of insecticidal efficacy against small brown planthopper (Test Example 2); type: in vivo; conditions: 500 ppm, rice plants soaked 30 seconds, third-instar larvae, eight days after inoculation; criteria same as in Test Example 1
From the text: Test of Insecticidal Efficacy Against Small Brown Planthopper (Laodelphax Striatellus)

O=C(CN1C(=O)c2nn(-c3cccnc3)cc2Oc2ccccc21)c1ccc(Cl)cc1 [1-76]
Preventive value, judgment [1]: A to D | Corrected insect mortality, judgment [2]: A to D

O=C1c2nn(-c3cccnc3)cc2Oc2ccccc2N1CCN1CCCCC1 [1-70]
Preventive value, judgment [1]: A to D | Corrected insect mortality, judgment [2]: A to D

CN1C(=O)c2nn(-c3cccnc3)cc2Oc2c(Cl)cccc21 [1-23]
Preventive value, judgment [1]: A to D | Corrected insect mortality, judgment [2]: A to D

CN1C(=O)c2nn(-c3cccnc3)cc2Oc2ccc(N)cc21 [1-45]
Preventive value, judgment [1]: A to D | Corrected insect mortality, judgment [2]: A to D

CS(=O)(=O)CN1C(=O)c2nn(-c3cccnc3)cc2Oc2ccccc21 [8-4]
Preventive value, judgment [1]: A to D | Corrected insect mortality, judgment [2]: A to D

O=C1c2nn(-c3cccnc3)cc2Oc2ccccc2N1CCc1ccccc1 [1-62]
Preventive value, judgment [1]: A to D | Corrected insect mortality, judgment [2]: A to D

CCSC1=Nc2cc(F)ccc2Oc2cn(-c3cccnc3)nc21 [11-19]
Preventive value, judgment [1]: A to D | Corrected insect mortality, judgment [2]: A to D

CC(C(=O)OC(C)(C)C)N1C(=O)c2nn(-c3cccnc3)cc2Oc2cc(F)ccc21 (centres unmarked) [8-32]
Preventive value, judgment [1]: A to D | Corrected insect mortality, judgment [2]: A to D

COC(=O)N1C(=O)c2nn(-c3cccnc3)cc2Oc2ccccc21 [8-13]
Preventive value, judgment [1]: A to D | Corrected insect mortality, judgment [2]: A to D

CSC1=Nc2cc(F)ccc2Oc2cn(-c3cccnc3)nc21 [11-18]
Preventive value, judgment [1]: A to D | Corrected insect mortality, judgment [2]: A to D

CCCCCCN1C(=O)c2nn(-c3cccnc3)cc2Oc2ccccc21 [1-52]
Preventive value, judgment [1]: A to D | Corrected insect mortality, judgment [2]: A to D

CN1C(=O)c2nn(-c3cccnc3)cc2Oc2cc(C#N)ccc21 [1-47]
Preventive value, judgment [1]: A to D | Corrected insect mortality, judgment [2]: A to D

O=C1Nc2cc(Cl)ccc2Oc2cn(-c3cccnc3)nc21 [8-54]
Preventive value, judgment [1]: A to D | Corrected insect mortality, judgment [2]: A to D

NC1=Nc2ccccc2Oc2cn(-c3cccnc3)nc21 [11-5]
Preventive value, judgment [1]: A to D | Corrected insect mortality, judgment [2]: A to D

C#CCN1C(=O)c2nn(-c3cccnc3)cc2Oc2c(F)cccc21 [1-8]
Preventive value, judgment [1]: A to D | Corrected insect mortality, judgment [2]: A to D

C#CCN1C(=O)c2nn(-c3cccnc3)cc2Oc2cc(C)ccc21 [1-32]
Preventive value, judgment [1]: A to D | Corrected insect mortality, judgment [2]: A to D

CCOCN1C(=O)c2nn(-c3cccnc3)cc2Oc2ccc(F)cc21 [8-46]
Preventive value, judgment [1]: A to D | Corrected insect mortality, judgment [2]: A to D

CN1C(=O)c2nn(-c3cccnc3)cc2Oc2cc(C(F)(F)F)ccc21 [1-34]
Preventive value, judgment [1]: A to D | Corrected insect mortality, judgment [2]: A to D

c1cncc(-n2cc3c(n2)CNc2ccccc2O3)c1 [3-1]
Preventive value, judgment [1]: A to D | Corrected insect mortality, judgment [2]: A to D

O=C1Nc2cc(F)ccc2Oc2cn(-c3cccnc3)nc21 [1-14]
Preventive value, judgment [1]: A to D | Corrected insect mortality, judgment [2]: A to D

CS(=O)(=O)CN1C(=O)c2nn(-c3cccnc3)cc2Oc2ccc(F)cc21 [8-49]
Preventive value, judgment [1]: A to D | Corrected insect mortality, judgment [2]: A to D

CN1C(=O)c2nn(-c3cncc(F)c3)cc2Oc2cc(F)ccc21 [1-80]
Preventive value, judgment [1]: A to D | Corrected insect mortality, judgment [2]: A to D

O=CN1C(=O)c2nn(-c3cccnc3)cc2Oc2ccccc21 [8-12]
Preventive value, judgment [1]: A to D | Corrected insect mortality, judgment [2]: A to D

N#CCN1C(=O)c2nn(-c3cccnc3)cc2Oc2cc(C(F)(F)F)ccc21 [1-36]
Preventive value, judgment [1]: A to D | Corrected insect mortality, judgment [2]: A to D

C#CCN1C(=O)c2nn(-c3cccnc3)cc2Oc2cc(F)ccc21 [1-12]
Preventive value, judgment [1]: A to D | Corrected insect mortality, judgment [2]: A to D

CSCCOC1=Nc2ccc(C(F)(C(F)(F)F)C(F)(F)F)cc2Oc2cn(-c3cccnc3)nc21 [11-17]
Preventive value, judgment [1]: A to D | Corrected insect mortality, judgment [2]: A to D

C#CCN1C(=O)c2nn(-c3cccnc3)cc2Oc2ccc(F)cc21 [1-16]
Preventive value, judgment [1]: A to D | Corrected insect mortality, judgment [2]: A to D

N#CCN1C(=O)c2nn(-c3cccnc3)cc2Oc2c(F)cccc21 [1-9]
Preventive value, judgment [1]: A to D | Corrected insect mortality, judgment [2]: A to D

C=CCN(CC=C)C1=Nc2cc(F)ccc2Oc2cn(-c3cccnc3)nc21 [11-11]
Preventive value, judgment [1]: A to D | Corrected insect mortality, judgment [2]: A to D

CN1C=COc2cn(-c3cccnc3)nc2C1=O [7-2]
Preventive value, judgment [1]: A to D | Corrected insect mortality, judgment [2]: A to D

CN1C(=O)c2nn(-c3cccnc3)cc2Oc2cc(Cl)ccc21 [1-27]
Preventive value, judgment [1]: A to D | Corrected insect mortality, judgment [2]: A to D

ClC1=Nc2ccccc2Oc2cn(-c3cccnc3)nc21 [11-1]
Preventive value, judgment [1]: A to D | Corrected insect mortality, judgment [2]: A to D

O=C1c2nn(-c3cccnc3)cc2Oc2ccccc2N1Cc1cccnc1 [1-58]
Preventive value, judgment [1]: A to D | Corrected insect mortality, judgment [2]: A to D

Cc1nn(C)c2c1N(CC#N)C(=O)c1nn(-c3cccnc3)cc1O2 [14-5]
Preventive value, judgment [1]: A to D | Corrected insect mortality, judgment [2]: A to D

CN1C(=O)c2nn(-c3cncnc3)cc2Oc2ccccc21 [1-79]
Preventive value, judgment [1]: A to D | Corrected insect mortality, judgment [2]: A to D

N#CCN1C(=O)c2nn(-c3cccnc3)cc2Oc2cc(Cl)ccc21 [1-29]
Preventive value, judgment [1]: A to D | Corrected insect mortality, judgment [2]: A to D

C#CCN1C(=O)c2nn(-c3cccnc3)cc2Oc2cc(OC)ccc21 [1-41]
Preventive value, judgment [1]: A to D | Corrected insect mortality, judgment [2]: A to D

O=C1Nc2ccccc2Oc2cn(-c3cccnc3)nc21 [Compound No. 1-1, 2-(pyridine-3-yl)-2H-benzo [b]pyrazolo [3,4-f][1,4]oxazepine-10 (9H)-one]
Preventive value, judgment [1]: A to D | Corrected insect mortality, judgment [2]: A to D

Cc1ccc2c(c1)Oc1cn(-c3cccnc3)nc1C(=O)N2CC#N [1-33]
Preventive value, judgment [1]: A to D | Corrected insect mortality, judgment [2]: A to D

CC(C)(C)OC(=O)CN1C(=O)c2nn(-c3cccnc3)cc2Oc2ccccc21 [1-75]
Preventive value, judgment [1]: A to D | Corrected insect mortality, judgment [2]: A to D

CCCCCCCCN1C(=O)c2nn(-c3cccnc3)cc2Oc2ccccc21 [1-53]
Preventive value, judgment [1]: A to D | Corrected insect mortality, judgment [2]: A to D

COC(=O)CN1C(=O)c2nn(-c3cccnc3)cc2Oc2ccccc21 [1-74]
Preventive value, judgment [1]: A to D | Corrected insect mortality, judgment [2]: A to D

ONC1=Nc2ccccc2Oc2cn(-c3cccnc3)nc21 [11-9]
Preventive value, judgment [1]: A to D | Corrected insect mortality, judgment [2]: A to D

O=C1c2nn(-c3cccnc3)cc2Oc2ccccc2N1CC(F)(F)F [1-5]
Preventive value, judgment [1]: A to D | Corrected insect mortality, judgment [2]: A to D

COc1ccc2c(c1)Oc1cn(-c3cccnc3)nc1C(=O)N2CC#N [1-42]
Preventive value, judgment [1]: A to D | Corrected insect mortality, judgment [2]: A to D

C=CCN1C(=O)c2nn(-c3cccnc3)cc2Oc2ccccc21 [1-55]
Preventive value, judgment [1]: A to D | Corrected insect mortality, judgment [2]: A to D

CCOCN1C(=O)c2nn(-c3cccnc3)cc2Oc2cc(F)ccc21 [8-26]
Preventive value, judgment [1]: A to D | Corrected insect mortality, judgment [2]: A to D

C#CCN1C(=O)c2nn(-c3cccnc3)cc2Oc2cc(Cl)ccc21 [1-28]
Preventive value, judgment [1]: A to D | Corrected insect mortality, judgment [2]: A to D

COCN1C(=O)c2nn(-c3cccnc3)cc2Oc2ccc(F)cc21 [8-45]
Preventive value, judgment [1]: A to D | Corrected insect mortality, judgment [2]: A to D
